Converted amounts (≈) assume the structure as drawn. Where two headings read alike, the source gives them in different places.
What was measured:
hTRPV3 = hTRPV3 (Homo sapiens (Human), UniProt Q8NET8); test: Whole-cell patch clamp, hTRPV3 Phase 1 / Phase 2 currents; assay type: cell-based
Outline: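 Whole-cell recordings on induced TRPV3 cells replated on coverslips, held at −40 mV with 400 ms ramps from −120 to +100 mV every 5 s; currents read at −80 and +80 mV. Ringer's external solution; current activated by heating to ≥28 °C or 20 μM 2-APB.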

[1] = Aqueous solubility assay in Normal Ringer Solution; conditions: Normal Ringer Solution, saline or isotonic, kinetic from dmso stock
Protocol: Following vortex and incubation for a sufficient time (e.g. 40 minutes at room temperature), solutions were filtered, quenched with acetonitrile, and analyzed by Liquid Chromotography. Solubility Limits were determined by comparison to a standard curve.

human hERG channels = human hERG channels (Homo sapiens (Human), UniProt Q12809); test: hERG assay (patch clamp, CHO cells); assay type: cell-based
human hERG channels, sequence (Q12809 whole entry): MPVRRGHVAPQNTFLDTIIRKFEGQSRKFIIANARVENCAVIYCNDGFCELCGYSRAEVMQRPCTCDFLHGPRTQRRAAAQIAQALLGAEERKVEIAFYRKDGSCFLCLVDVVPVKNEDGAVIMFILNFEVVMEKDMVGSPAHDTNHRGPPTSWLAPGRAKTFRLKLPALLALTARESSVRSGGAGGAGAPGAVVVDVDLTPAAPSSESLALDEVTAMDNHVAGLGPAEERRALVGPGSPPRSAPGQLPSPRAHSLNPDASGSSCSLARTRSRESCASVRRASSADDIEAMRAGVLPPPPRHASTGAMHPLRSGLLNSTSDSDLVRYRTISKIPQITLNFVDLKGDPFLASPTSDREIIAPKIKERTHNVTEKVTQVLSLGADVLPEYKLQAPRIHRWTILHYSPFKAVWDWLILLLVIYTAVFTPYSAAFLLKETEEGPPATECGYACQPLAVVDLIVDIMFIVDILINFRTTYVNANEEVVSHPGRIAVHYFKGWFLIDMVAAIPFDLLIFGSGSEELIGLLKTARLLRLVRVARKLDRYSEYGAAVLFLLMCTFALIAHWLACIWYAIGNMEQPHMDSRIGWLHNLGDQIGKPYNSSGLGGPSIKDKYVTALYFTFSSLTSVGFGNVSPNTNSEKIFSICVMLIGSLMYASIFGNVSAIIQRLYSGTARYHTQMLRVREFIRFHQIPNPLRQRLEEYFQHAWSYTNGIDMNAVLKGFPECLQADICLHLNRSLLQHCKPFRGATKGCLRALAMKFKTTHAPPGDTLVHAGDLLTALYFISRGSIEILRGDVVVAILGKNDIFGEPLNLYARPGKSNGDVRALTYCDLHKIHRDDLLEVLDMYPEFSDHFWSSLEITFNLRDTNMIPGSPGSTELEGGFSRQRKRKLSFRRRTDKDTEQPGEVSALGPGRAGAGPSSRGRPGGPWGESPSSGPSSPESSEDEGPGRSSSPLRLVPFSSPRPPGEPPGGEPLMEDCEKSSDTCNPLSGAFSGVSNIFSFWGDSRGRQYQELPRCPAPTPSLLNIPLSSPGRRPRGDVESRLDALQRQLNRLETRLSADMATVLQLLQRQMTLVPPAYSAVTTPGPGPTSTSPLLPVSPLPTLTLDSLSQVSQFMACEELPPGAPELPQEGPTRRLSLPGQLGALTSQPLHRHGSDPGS
Protocol: hERG assay: Briefly, cells from a stable CHO cell line expressing human hERG channels were plated onto glass coverslips and used in patch clamp assays on the same day. After seal formation and break-in to whole-cell configuration, voltage steps were applied as follows: from the holding potential of −90 mV, a 2 second long step to +40 mV was applied, followed by a 1.5 second step to −50 mV. These steps were applied once every 5 seconds. The hERG current was measured at the peak of the outward tail current at −50 mV. The pipette solution was potassium aspartate based and the external solution was normal Ringer's.
All currents were recorded in whole-cell configuration using an Axopatch 200B controlled by pClamp 10 software (Molecular Devices). In each cell, when the current stabilized, the compound was perfused locally onto the cell. Two to three concentrations of the test compound were applied to each cell. At the end of compound testing, 10 μM verapamil was applied to completely block hERG currents and assess leak current.
Data were analyzed by computing the degree of current block after compound addition compared with the unblocked current amplitude. The unblocked current was predicted from the interpolation between the current amplitude prior to compound addition and after compound washout. The resulting percent block at each concentration was used to make a concentration-response plot and fitted to the Hill equation: percent block=minimum block+(maximum block-minimum block)/(1+10^(Hill slope*(log IC50−concentration))).

[2] = Metabolic Stability assay, rat liver microsomes; assay type: in vitro ADME; conditions: read-out: LM T1/2 (min) rat
Outline: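 Test article at 1 μM starting concentration incubated with human or rat liver microsomes at 37 °C, with the reaction started by NADPH regeneration components. Aliquots were quenched in cold acetonitrile/MeOH/H2O at 0, 7, 15, 30 and 60 min and analysed by HPLC/MS/MS.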

[3] = Phase 1 current, human TRPV3, read-out: hTRPV3 (nM) Phase 1
[4] = Phase 1 current, inward, whole-cell patch clamp, read-out: hTRPV3 Patch P1 Inwd

hTRPV3, sequence (Q8NET8 whole entry): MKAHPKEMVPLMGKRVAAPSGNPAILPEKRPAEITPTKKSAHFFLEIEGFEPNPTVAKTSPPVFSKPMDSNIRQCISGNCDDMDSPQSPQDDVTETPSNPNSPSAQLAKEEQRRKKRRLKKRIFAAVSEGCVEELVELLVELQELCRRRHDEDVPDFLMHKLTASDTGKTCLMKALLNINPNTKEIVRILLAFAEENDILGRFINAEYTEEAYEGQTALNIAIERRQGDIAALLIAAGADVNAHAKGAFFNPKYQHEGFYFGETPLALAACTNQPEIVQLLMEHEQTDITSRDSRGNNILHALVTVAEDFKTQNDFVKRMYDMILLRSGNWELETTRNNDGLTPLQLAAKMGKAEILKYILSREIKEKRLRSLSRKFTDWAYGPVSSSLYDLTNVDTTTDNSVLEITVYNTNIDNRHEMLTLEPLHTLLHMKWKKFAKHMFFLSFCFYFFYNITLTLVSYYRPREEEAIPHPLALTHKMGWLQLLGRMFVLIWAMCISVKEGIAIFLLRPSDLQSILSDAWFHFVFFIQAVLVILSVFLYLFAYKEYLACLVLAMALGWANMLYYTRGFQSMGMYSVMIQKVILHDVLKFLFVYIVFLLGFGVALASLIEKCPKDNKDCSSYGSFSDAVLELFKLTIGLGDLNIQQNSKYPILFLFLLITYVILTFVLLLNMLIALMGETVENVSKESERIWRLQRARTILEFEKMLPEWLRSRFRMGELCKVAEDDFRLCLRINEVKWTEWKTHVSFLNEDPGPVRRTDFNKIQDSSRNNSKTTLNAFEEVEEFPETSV

Compound | IC50 (hTRPV3; [3]) | IC50 (hTRPV3; [4]) | IC50 (hTRPV3; Phase 2 current, human TRPV3, read-out: hTRPV3 (nM) Phase 2) | IC50 (hTRPV3; Phase 2 current, inward, whole-cell patch clamp, read-out: hTRPV3 Patch P2 Inwd) | solubility at 40 min [1] | IC50 (human hERG channels; (PL), read-out: hERG (nM) (PL)) | half-life at 1 μM [2] | IC50 (human hERG channels) | IC50 (human hERG channels; (M), read-out: hERG)
CC(C)c1ccccc1Oc1ccc(C2CCN(C(=O)c3ccc(F)cn3)C2)c(CO)c1 (stereo not drawn) [Compound 2-16, (5-fluoropyridin-2-yl)(3-(2-(hydroxymethyl)-4-(2-isopropylphenoxy)phenyl)pyrrolidin-1-yl)methanone] | 29.7 nM | 10 to 100 nM | 25.7 nM | 10 to 100 nM | ~4.7 µM (≈ 2.04 µg/mL) | 9650 nM | 5.3 min |  | 
CC(C)c1ccccc1Oc1ccc(C2CCN(C(=O)c3cccc(Cl)n3)C2)c(CO)c1 (stereo not drawn) [Compound 2-20, (6-chloropyridin-2-yl)(3-(2-(hydroxymethyl)-4-(2-isopropylphenoxy)phenyl)pyrrolidin-1-yl)methanone] | 62 nM | 10 to 100 nM |  |  | ~1.6 µM (≈ 0.722 µg/mL) |  | 8.33 min | ~5330 nM | 3910 nM
CCc1cncnc1Oc1ccc(C2CCN(C(=O)c3ncccc3Cl)C2)c(CO)c1 (stereo not drawn) [Compound 2-22, (3-chloropyridin-2-yl)(3-(4-(5-ethylpyrimidin-4-yloxy)-2-(hydroxymethyl)phenyl)pyrrolidin-1-yl)methanone] | > 3200 nM | > 1000 nM |  |  | > 20.3 µM | > 32000 nM | 31.8 min |  | 
CC(C)c1ccccc1Oc1ccc(C2CCN(C(=O)c3ncccc3Cl)C2)c(C(N)=O)c1 (stereo not drawn) [Compound 2-26, 2-(1-(3-chloropicolinoyl)pyrrolidin-3-yl)-5-(2-isopropylphenoxy)benzamide] | 217 nM | 100 to 1000 nM |  |  | > 19.2 µM | 10400 nM | 19.7 min |  | 
CCc1ccccc1-c1ccc(C2CCN(C(=O)c3ccc(F)cn3)C2)c(CO)c1 (stereo not drawn) [Compound 2-28, (3-(2′-ethyl-3-(hydroxymethyl)biphenyl-4-yl)pyrrolidin-1-yl)(5-fluoropyridin-2-yl)methanone] | 19.6 nM | 10 to 100 nM |  |  | > 15 µM | 13700 nM | 18.4 min |  | 
CC(C)c1ccccc1-c1ccc(C2CCN(C(=O)c3ccccn3)C2)c(CO)c1 (stereo not drawn) [Compound 2-42] | 22.7 nM | 10 to 100 nM |  |  | > 19.7 µM | 18300 nM | 11.7 min |  | 
CCc1ccccc1-c1ccc(C2CCN(C(=O)c3ccc(C(F)(F)F)cn3)C2)c(CO)c1 (stereo not drawn) [Compound 2-47, (3-(2′-ethyl-3-(hydroxymethyl)biphenyl-4-yl)pyrrolidin-1-yl)(5-(trifluoromethyl)pyridin-2-yl)methanone] | 18.4 nM | 10 to 100 nM |  |  | ~5.6 µM (≈ 2.55 µg/mL) | 17200 nM | 28.1 min |  | 
CCc1ccccc1-c1ccc(C2CCN(C(=O)c3cc(Cl)ccn3)C2)c(CO)c1 (stereo not drawn) [Compound 2-48, (4-chloropyridin-2-yl)(3-(2′-ethyl-3-(hydroxymethyl)biphenyl-4-yl)pyrrolidin-1-yl) methanone] | 69.3 nM | 10 to 100 nM |  |  | > 8 µM | 13400 nM | 7.54 min |  | 
CCc1c(C)cccc1-c1ccc(C2CCN(C(=O)c3ccc(F)cn3)C2)c(CO)c1 (stereo not drawn) [Compound 2-64, (3-(2′-ethyl-3-(hydroxymethyl)-3′-methylbiphenyl-4-yl)pyrrolidin-1-yl)(5-fluoropyridin-2-yl)methanone] | 18 nM | 10 to 100 nM |  |  | > 15.7 µM | 10100 nM | 6.38 min |  | 
CCOc1ccccc1-c1ccc(C2CCN(C(=O)c3ccc(Cl)cn3)C2)c(CO)c1 (stereo not drawn) [Compound 2-69, (5-chloropyridin-2-yl)(3-(2′-ethoxy-3-(hydroxymethyl)biphenyl-4-yl)pyrrolidin-1-yl)methanone] | 25.3 nM | 10 to 100 nM |  |  | > 16 µM | 12300 nM | 12.6 min |  | 
CCc1ccccc1Oc1ccc(C2CCN(C(=O)c3ncccc3Cl)C2)c(CO)c1 (stereo not drawn) [Compound 2-83, (3-chloropyridin-2-yl)(3-(4-(2-ethylphenoxy)-2-(hydroxymethyl)phenyl)pyrrolidin-1-yl)methanone] | 95.1 nM |  |  |  | > 11 µM | 16000 nM | 9.46 min |  | 
